According to US20220411397A1, “ANALOGUES OF N-ACYL-HOMOSERINE LACTONES AND PHARMACEUTICAL COMPOSITION COMPRISING SAME” (SORBONNE UNIVERSITE, priority 2019, published 2022):

Assays:
[1] = Resistance to hydrolysis giving the open form; assay type: physicochemical
human lymphocytes = assay: Inhibition of IL-2 secretion by human lymphocytes stimulated by CD2, CD3 and CD28; assay type: cell-based; settings: lymphocytes stimulated by CD2, CD3 and CD28
LasR receptor = biological target: T1, LasR receptor (Pseudomonas aeruginosa, UniProt P25084); assay: Activation of the LasR receptor on bacterial reporter strain E. coli pSB1075 (bioluminescence); assay type: cell-based
T1 construct: expressed in transfected cells; host or cells: Escherichia coli carrying plasmid pSB1075
T1 sequence (P25084 whole entry): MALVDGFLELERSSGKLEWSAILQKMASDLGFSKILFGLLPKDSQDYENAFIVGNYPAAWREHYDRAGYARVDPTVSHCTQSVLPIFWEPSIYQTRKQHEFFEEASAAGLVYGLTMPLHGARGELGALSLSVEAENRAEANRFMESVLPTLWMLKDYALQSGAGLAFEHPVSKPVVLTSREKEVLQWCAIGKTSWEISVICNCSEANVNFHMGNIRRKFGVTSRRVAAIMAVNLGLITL
Source text: 1.1.3. The Bacterial Reporter Strain E. coli pSB1075 • A bacterial reporter strain of the Quorum Sensing was used to study the ability of the molecules to be recognized by the Pseudomonas aeruginosa AHL receptor (LasR) and induce an activation. […] This bioluminescent strain was modified by addition of a plasmid pSB1075. This plasmid contains genes encoding both tetracycline resistance and the expression of the LasR AHL receptor from the Pseudomonas aeruginosa bacteria, as well as a fusion gene derived from the LasR promoter and the luxCDABE gene from Photorhabdus luminescence. The bacterial strain was grown in the LB medium supplemented with 5 μg/ml tetracycline to exert a selection pressure and ensure that only the desired strain was amplified. The fusion gene included in the plasmid gives the bacteria the ability to emit a bioluminescence when the LasR receptor is activated, and provides the user with a robust test for the molecular screening. […] On day 1, the culture was diluted 1:100 (P1) in 10 ml of LB medium supplemented with 5 μg/ml tetracycline and maintained for 24 hours at 37° C. under stirring at 70 rpm. On day 2, the experiment took place: a bacterial suspension extemporaneously diluted 1:10 in LB medium supplemented with 5 μg/ml tetracycline (P2) was dispensed into a black opaque 96-well plate and incubated for 4 hours with a range of AHL concentrations or controls until the resulting luminescence was read at the end point. All experiments were performed in triplicates.
1.3. […] This bioluminescent strain was developed by the addition of a plasmid pSB1075 containing genes encoding the tetracycline resistance and the expression of the LasR AHL receptor, as well as a fusion gene of the LasR promoter and the luxCDABE gene of Photorhabdus luminescence. • On day 1, a 1/100 dilution of the bacterial strain (P1) was grown for 24 hours at 37° C. under stirring (70 rpm) in a LB medium containing 5 μg/ml tetracycline (pressure selective). On day 2, P1 was diluted 1:10 in the same medium to obtain P2. In a black 96-well plate were placed 200 μL of P2 and 10 μL of the short chain compound (medium, water and DMSO for the negative controls, C4-HSL as positive control, and the test sample at the desired concentration). The plate was incubated for 4 hours at 37° C. under stirring at 70 rpm. […] After that, the incubation was continued according to the conventional protocol, with the test compound at the desired concentrations.

human keratinocytes = assay: Inhibition of IL-8 secretion by human keratinocytes stimulated by IL-17 and TNF-α; assay type: cell-based; settings: keratinocytes stimulated by IL-17 and TNF-α
E. coli K12 strain = assay: Bactericidal dosage on the E. coli K12 strain (absorbance at 600 nm); assay type: cell-based; settings: all concentrations, maximum 100 μM shown; 18 h
Experimental: 1.1.4. Bactericidal Dosage • The K12 strain of E. coli was grown on agar on day 0 and a colony was transferred to the LYBHI liquid bacterial culture medium on day 1. On day 2, the colony was diluted 1:100 in LYBHI medium and amplified for 18 hours before transfer to an opaque 96-well plate. In each well, LYBHI, controls or increasing doses of tested molecules and bacteria were distributed. The absorbance at 600 nm was read at start-up (t=0) and after an 18-hour incubation. The raw absorbance values were corrected using the absorbance of solutions without bacteria. All experiments were performed twice, each with 4 replicates.
The E. coli K12 strain was cultured at D0 on agar gel, and then a selected colony was transferred to a liquid bacterial culture LYBHI medium at D1. At day 2, this colony was diluted 1:100 in LYBHI medium, and maintained for 18 hours for expansion before distribution in an opaque 96-well plate. In each well were distributed: LYBHI medium, bacterial culture, and test or control compounds. The absorbance of the wells was read at 600 nm at t0 and t18h. The raw absorbance values were corrected against the absorbance of the wells containing only LYBHI medium without bacteria or compounds.

| SMILES | resistance to hydrolysis (enzymatic and spontaneous) [1] | EC50 (human lymphocytes; Homo sapiens, Lymphocyte, read-out: relative EC50, inhibition of IL-2 secretion) [µM] | maximum inhibition as % of the inhibition obtained with the reference compound betamethasone (human lymphocytes; IL-2 secretion) [%] | EC50 (LasR receptor) [µM] | EC50 (human keratinocytes; Homo sapiens, Keratinocyte, read-out: relative EC50, inhibition of IL-8 secretion) [µM] | maximum inhibition as % of the inhibition obtained with the reference compound betamethasone (human keratinocytes; IL-8 secretion) [%] | comparative survival of E. coli K12 (E. coli K12 strain) |
| --- | --- | --- | --- | --- | --- | --- | --- |
| CCCCCCCCCC(=O)CC(=O)N[C@H]1CCCC[C@@H]1O [I-2, N-[(1S,2S)-2-hydroxycyclohexyl]-3-oxo-dodecanamide] | resistant to the hydrolysis giving an open form (both enzymatic and spontaneous) | 0.0899 | 46 | 0.165 | 0.111 | 39 | No significant differences |
| CCCCCCCCCC(=O)CC(=O)N[C@H]1CCCC[C@H]1O [I-4, N-[(1S,2R)-2-hydroxycyclohexyl]-3-oxo-dodecanamide] | – | – | – | 200 | – | – | No significant differences |
| CCCCCCCCCC(=O)CC(=O)Nc1cc(Cl)ccc1O [I-6, N-(5-chloro-2-hydroxyphenyl)-3-oxododecanamide] | – | – | – | > 1000 | – | – | No significant differences |
